Reference: the supplement of paper PMC10011410
± gives the standard deviation of the averaged measurements.

Tests used:
U-2 OS [1] = assay: AUC of culture confluence over time (live-cell imaging) (AUC (confluence % x time)); higher = more confluent culture (less growth inhibition)
Protocol: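 Live-cell Incucyte imaging of U-2 OS cells in F-12K medium. Compounds were tested mostly at 5, 10 and 20 uM, and cells were imaged every 4 h for up to 60 h. Value is the area under the curve of phase-contrast confluence over time.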

U-2 OS [2] = assay: cell painting activity score (Mahalanobis distance from DMSO wells); higher = stronger morphological phenotype; conditions: 24 h
Protocol: (§1)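 Cell painting in U-2 OS cells (384-well, about 1,500 cells per well), compound exposure 24 h, usually six 2-fold concentrations from 20 to 0.625 uM (some compounds higher or lower). Relative cell count is the cell number per well relative to DMSO wells. Activity score is the Mahalanobis distance of the morphological profile from DMSO control wells. Mean of four technical replicate plates.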

U-2 OS [3] = assay: relative cell count vs DMSO (cell painting) (fraction of DMSO control); higher = more cells remaining (less cytotoxic); conditions: 24 h
Protocol: as §1

SMILES | AUC of culture confluence over time (U-2 OS [1]; 5 µM) | AUC of culture confluence over time (U-2 OS [1]; 10 µM) | AUC of culture confluence over time (U-2 OS [1]; 20 µM) | cell painting activity score (U-2 OS [2]; 0.625 µM) | cell painting activity score (U-2 OS [2]; 1.25 µM) | cell painting activity score (U-2 OS [2]; 2.5 µM) | cell painting activity score (U-2 OS [2]; 5 µM) | cell painting activity score (U-2 OS [2]; 10 µM) | cell painting activity score (U-2 OS [2]; 20 µM) | relative cell count (U-2 OS [3]; 0.625 µM) | relative cell count (U-2 OS [3]; 1.25 µM) | relative cell count (U-2 OS [3]; 2.5 µM) | relative cell count (U-2 OS [3]; 5 µM) | relative cell count (U-2 OS [3]; 10 µM) | relative cell count (U-2 OS [3]; 20 µM) | AUC of culture confluence over time (U-2 OS [1]; 1.25 µM) | cell painting activity score (U-2 OS [2]; 0.019532 µM) | cell painting activity score (U-2 OS [2]; 0.07812 µM) | cell painting activity score (U-2 OS [2]; 0.3124 µM) | relative cell count (U-2 OS [3]; 0.019532 µM) | relative cell count (U-2 OS [3]; 0.07812 µM) | relative cell count (U-2 OS [3]; 0.3124 µM)
C=C1[C@@H](C)[C@H]2[C@H](Cc3ccccc3)NC(=O)[C@]23OC(=O)/C=C/[C@H](O)CCC[C@@H](C)C/C=C/[C@H]3[C@@H]1O | 29 | 26.1 | 26.1 | 9.61 | 11.2 | 9.71 | 10.7 | 12 | 16.1 | 0.968 | 0.954 | 0.865 | 0.715 | 0.722 | 0.667 |  |  |  |  |  |  | 
CS(=O)(=O)OCCCCOS(C)(=O)=O | 49.5 | 47.2 | 49.5 | 3.32 | 4.51 | 5.59 | 7.16 | 6.02 | 10 | 0.959 | 0.863 | 0.85 | 0.682 | 0.679 | 0.295 |  |  |  |  |  |  | 
Cc1cnc(CNC(=O)c2c(=O)c3ccc(N4CCCN(C)CC4)nc3n3c2sc2ccccc23)cn1 | 33.9 | 34.5 | 35 | 9.34 | 10.9 | 10.3 | 10.4 | 11.4 | 11 | 0.709 | 0.607 | 0.591 | 0.572 | 0.559 | 0.548 |  |  |  |  |  |  | 
Cl.Nc1ccc(O)c2ccccc12 | 31.2 | 23.5 | 18 | 8.19 | 6.08 | 9.4 | 14.3 | 15.3 | 30.8 | 0.931 | 0.895 | 0.888 | 0.75 | 0.623 | 0.09 |  |  |  |  |  |  | 
O=C(OC[C@H]1O[C@@H](OC(=O)c2cc(O)c(O)c(OC(=O)c3cc(O)c(O)c(O)c3)c2)[C@H](OC(=O)c2cc(O)c(O)c(OC(=O)c3cc(O)c(O)c(O)c3)c2)[C@@H](OC(=O)c2cc(O)c(O)c(OC(=O)c3cc(O)c(O)c(O)c3)c2)[C@@H]1OC(=O)c1cc(O)c(O)c(OC(=O)c2cc(O)c(O)c(O)c2)c1)c1cc(O)c(O)c(OC(=O)c2cc(O)c(O)c(O)c2)c1 | 48.2 | 48.5 | 27.9 | 4.17 | 4.59 | 6.15 | 5.91 | 6.39 | 8.09 | 1.02 | 1.02 | 1.02 | 0.945 | 0.945 | 0.697 |  |  |  |  |  |  | 
CC(=O)N[C@@H](CCCCNC(=O)CSCCNC(=O)CCNC(=O)[C@H](O)C(C)(C)COP(=O)(O)OP(=O)(O)OC[C@H]1O[C@@H](n2cnc3c(N)ncnc32)[C@H](O)[C@@H]1OP(=O)(O)O)C(N)=O.O=C(O)C(F)(F)F | 44.2 | 44.8 | 42.4 | 3.32 | 5.02 | 3.77 | 3.73 | 4.57 | 4.45 | 0.896 | 0.879 | 0.923 | 0.883 | 0.875 | 0.903 |  |  |  |  |  |  | 
CN(C)/N=N/c1nc[nH]c1C(N)=O | 43.6 | 42.3 | 45.2 | 4.78 | 4.12 | 4.94 | 4.77 | 3.79 | 4.2 | 1 | 0.996 | 0.98 | 0.966 | 1.02 | 1.02 |  |  |  |  |  |  | 
COc1ccc2c(c[n+](C)c3c4cc5c(cc4ccc23)OCO5)c1OC | 46.8 | 41 | 11.4 | 5.1 | 3.72 | 14.6 | 14.5 | 13.8 | 16.2 | 0.994 | 1.03 | 1.01 | 0.982 | 0.695 | 0.0282 |  |  |  |  |  |  | 
Cc1nc(Nc2ncc(C(=O)Nc3c(C)cccc3Cl)s2)cc(N2CCN(CCO)CC2)n1 | 32.5 | 29 | 22.6 | 11.4 | 12.6 | 12.3 | 12.2 | 13.1 | 12.8 | 0.973 | 0.883 | 0.89 | 0.894 | 0.806 | 0.839 |  |  |  |  |  |  | 
CC[C@@H]1/C=C/C=C/C[C@H](C)[C@@H](O)[C@](C)(O)C(=O)[C@H](C)[C@@H](O)[C@H](C)C(=O)[C@H](C)[C@@H](O)[C@H](C)/C=C/C(=O)O[C@H]2[C@@H](C)[C@@H](CC1)O[C@@]1(CC[C@@H](C)[C@@H](C[C@H](C)O)O1)[C@@H]2C | 28.5 | 29.6 | 17.4 | 14.7 | 14.7 | 14.5 | 13.4 | 13.8 | 15 | 0.797 | 0.815 | 0.83 | 0.833 | 0.872 | 0.697 |  |  |  |  |  |  | 
C=C(C)[C@H]1Cc2c(ccc3c2O[C@@H]2COc4cc(OC)c(OC)cc4[C@@H]2C3=O)O1 | 15 | 17.9 | 21.1 | 10.4 | 11.4 | 15.6 | 15.6 | 15.4 | 15.4 | 0.719 | 0.643 | 0.485 | 0.349 | 0.311 | 0.332 |  |  |  |  |  |  | 
CC(C)[C@H]1OC(=O)[C@H](Cc2ccccc2)N(C)C(=O)[C@@H](C(C)C)OC(=O)[C@H](Cc2ccccc2)N(C)C(=O)[C@@H](C(C)C)OC(=O)[C@H](Cc2ccccc2)N(C)C1=O | 19.7 | 28.9 | 11.6 | 3.92 | 4.9 | 9.63 | 14.2 | 15.5 | 34.1 | 0.976 | 0.957 | 0.981 | 0.73 | 0.439 | 0.0218 |  |  |  |  |  |  | 
CNc1nc(-c2ccccc2)[n+](-c2ccccc2)s1 | 36 | 44.4 | 42.5 | 2.89 | 2.97 | 3.6 | 3.74 | 6.88 | 14.5 | 1 | 1.03 | 0.994 | 0.992 | 0.516 | 0.0974 |  |  |  |  |  |  | 
CC1=C2C(=CO[C@H](C)[C@H]2C)C(=O)C(C(=O)O)=C1O | 48.9 | 45.6 | 42 | 4.49 | 5.94 | 4.77 | 8.7 | 6.33 | 10.3 | 0.985 | 0.942 | 0.951 | 0.893 | 0.935 | 0.793 |  |  |  |  |  |  | 
CC[C@@]1(O)C(=O)OCc2c1cc1n(c2=O)Cc2cc3ccccc3nc2-1 | 19.7 |  | 21.5 |  | 12.4 ± 0.52 |  | 13.7 ± 0.32 |  | 15.5 ± 0.56 |  | 0.476 ± 0.059 |  | 0.379 ± 0.037 |  | 0.351 ± 0.028 | 19.5 | 7.71 ± 3.2 | 9.83 ± 1.2 | 10.3 ± 0.47 | 0.694 ± 0.18 | 0.516 ± 0.026 | 0.503 ± 0.036
CN1C(=O)[C@]23CC4=CC=C[C@H](O)[C@H]4N2C(=O)[C@@]1(CO)SS3 | 7.79 | 7.52 | 8.46 | 17.6 | 31.2 | 35.5 | 29.6 | 26.9 | 36.5 | 0.197 | 0.0207 | 0.0068 | 0.0047 | 0.00462 | 0.00499 |  |  |  |  |  |  | 
C[C@]12O[C@H](C[C@]1(O)CO)n1c3ccccc3c3c4c(c5c6ccccc6n2c5c31)CNC4=O | 25.9 | 23.6 | 23.8 | 20.6 | 21.4 | 22.3 | 23.1 | 23.1 | 22.8 | 0.654 | 0.525 | 0.521 | 0.516 | 0.453 | 0.138 |  |  |  |  |  |  | 
C[C@@]12C(=O)OC(=O)[C@]1(C)[C@H]1CC[C@@H]2O1 | 32.8 | 33.9 | 19.5 | 13.8 | 14.1 | 13.8 | 13.3 | 13.5 | 9.67 | 0.887 | 0.831 | 0.869 | 0.887 | 0.918 | 0.792 |  |  |  |  |  |  | 
